In ChEMBL document CHEMBL5113515, “The Discovery of GSK3640254, a Next-Generation Inhibitor of HIV-1 Maturation” (J Med Chem, 2022):

Experiments:
[1] = tested on: Human immunodeficiency virus 1; assay: Antiviral activity against HIV1 wild type NL (4 to 3) infected in human MT2 cells measured after 4 to 5 days by dual-luciferase reporter assay; assay type: functional, organism-based; settings: Human immunodeficiency virus 1, MT2
[2] = tested on: Human immunodeficiency virus 1; assay: Antiviral activity against HIV1 wild type NL (4 to 3) infected in human MT2 cells measured after 4 to 5 days in presence of human serum by dual-luciferase reporter assay; assay type: functional, organism-based
[3] = tested on: Human immunodeficiency virus 1; assay: Antiviral activity against HIV1 harbouring deltaV370/T371A mutant infected in human MT2 cells measured after 4 to 5 days by dual-luciferase reporter assay; assay type: functional, organism-based; settings: Human immunodeficiency virus 1, MT2
[4] = tested on: Human immunodeficiency virus 1; assay: Antiviral activity against HIV1 harbouring V362I/V370A mutant infected in human MT2 cells measured after 4 to 5 days by dual-luciferase reporter assay; assay type: functional, organism-based; settings: Human immunodeficiency virus 1, MT2
[5] = tested on: Human immunodeficiency virus 1; assay: Antiviral activity against HIV1 harbouring T332S/V362I/prR41G mutant infected in human MT2 cells measured after 4 to 5 days by dual-luciferase reporter assay; assay type: functional, organism-based; settings: Human immunodeficiency virus 1, MT2
[6] = tested on: MT2; assay: Cytotoxicity in human MT2 cells assessed as reduction in cell viability; assay type: functional
[7] = AUC in rat at 5 mg/kg, po; assay type: ADME, organism-based; design: dose 5 mg/kg, route po; settings: in vivo, read-out: AUC
[8] = Human immunodeficiency virus 1, MT2

SMILES: C=C(C)[C@@H]1CC[C@]2(NCCN3CCS(=O)(=O)CC3)CC[C@]3(C)[C@H](CC[C@@H]4[C@@]5(C)CC=C(C6=CCC(CC(=O)O)CC6)C(C)(C)[C@@H]5CC[C@]43C)[C@@H]12 (stereo not given in full)
- EC50 [1]: 13.1 nM
- EC50 [2, 8]: 12 nM
- EC50 [3]: 5.3 nM
- EC50 [4]: 15.7 nM
- EC50 [5]: 124 nM
- CC50 [6]: 6400 nM

SMILES: C=C(C)[C@@H]1CC[C@]2(NCCN3CCS(=O)(=O)CC3)CC[C@]3(C)[C@H](CC[C@@H]4[C@@]5(C)CC=C(C6=CCC(CO)(C(=O)O)CC6)C(C)(C)[C@@H]5CC[C@]43C)[C@@H]12 (stereo not given in full)
- EC50 [1]: 4 nM
- EC50 [2, 8]: 5.9 nM
- EC50 [3]: 4.6 nM
- EC50 [4]: 1.9 nM
- EC50 [5]: 25.6 nM
- CC50 [6]: 14200 nM

SMILES: C=C(C)[C@@H]1CC[C@]2(NCCN3CCS(=O)(=O)CC3)CC[C@]3(C)[C@H](CC[C@@H]4[C@@]5(C)CC=C(C6=CCC(C(=O)O)(C(=O)O)CC6)C(C)(C)[C@@H]5CC[C@]43C)[C@@H]12
- EC50 [5]: 292 nM
- CC50 [6]: 18600 nM

SMILES: C=C(C)[C@@H]1CC[C@]2(NCCN3CCC(S(C)(=O)=O)CC3)CC[C@]3(C)[C@H](CC[C@@H]4[C@@]5(C)CC=C(C6=CCC(CCCOC)(C(=O)O)CC6)C(C)(C)[C@@H]5CC[C@]43C)[C@@H]12 (stereo not given in full)
- EC50 [1]: 2 nM
- EC50 [2, 8]: 19.3 nM
- EC50 [5]: 11.1 nM
- CC50 [6]: 12100 nM

SMILES: C=C(C)[C@@H]1CC[C@]2(NCCN3CCS(=O)(=O)CC3)CC[C@]3(C)[C@H](CC[C@@H]4[C@@]5(C)CC=C(C6=CCC(CCO)(C(=O)O)CC6)C(C)(C)[C@@H]5CC[C@]43C)[C@@H]12 (stereo not given in full)
- EC50 [1]: 4.6 nM
- EC50 [2, 8]: 85.8 nM
- EC50 [3]: 5.3 nM
- EC50 [4]: 4.5 nM
- EC50 [5]: 15.9 nM
- CC50 [6]: 12700 nM

SMILES: C=C(C)[C@@H]1CC[C@]2(NCCN3CCS(=O)(=O)CC3)CC[C@]3(C)[C@H](CC[C@@H]4[C@@]5(C)CC=C(C6=CCC(CC(=O)O)(C(=O)O)CC6)C(C)(C)[C@@H]5CC[C@]43C)[C@@H]12 (stereo not given in full)
- EC50 [1]: 3.5 nM
- EC50 [2, 8]: 135 nM
- EC50 [5]: 14.1 nM
- CC50 [6]: 6400 nM

SMILES: C=C(C)[C@@H]1CC[C@]2(NCCN3CCC(S(C)(=O)=O)CC3)CC[C@]3(C)[C@H](CC[C@@H]4[C@@]5(C)CC=C(C6=CCC(CC(F)F)(C(=O)O)CC6)C(C)(C)[C@@H]5CC[C@]43C)[C@@H]12 (stereo not given in full)
- EC50 [1]: 1.4 nM
- EC50 [2, 8]: 9.6 nM
- EC50 [5]: 4 nM
- CC50 [6]: 7200 nM
- AUC [7]: 4.29 µM·h

SMILES: C=C(C)[C@@H]1CC[C@]2(NCCN3CCS(=O)(=O)CC3)CC[C@]3(C)[C@H](CC[C@@H]4[C@@]5(C)CC=C(C6=CCC(C)(C(=O)O)CC6)C(C)(C)[C@@H]5CC[C@]43C)[C@@H]12 (stereo not given in full)
- EC50 [1]: 1.5 nM
- EC50 [2, 8]: 12 nM
- EC50 [3]: 9.8 nM
- EC50 [5]: 4.8 nM
- CC50 [6]: 13100 nM
- AUC [7]: 5.86 µM·h

SMILES: C=C(C)[C@@H]1CC[C@]2(NCCN3CCS(=O)(=O)CC3)CC[C@]3(C)[C@H](CC[C@@H]4[C@@]5(C)CC=C(C6=CCC(COC)(C(=O)O)CC6)C(C)(C)[C@@H]5CC[C@]43C)[C@@H]12 (stereo not given in full)
- EC50 [1]: 1.5 nM
- EC50 [2, 8]: 6.7 nM
- EC50 [5]: 13.9 nM
- CC50 [6]: 4700 nM

SMILES: C=C(C)[C@@H]1CC[C@]2(NCCN3CCS(=O)(=O)CC3)CC[C@]3(C)[C@H](CC[C@@H]4[C@@]5(C)CC=C(C6=CCC(O)(C(=O)O)CC6)C(C)(C)[C@@H]5CC[C@]43C)[C@@H]12 (stereo not given in full)
- EC50 [1]: 2 nM
- EC50 [2, 8]: 13.1 nM
- EC50 [3]: 2.4 nM
- EC50 [4]: 6 nM
- EC50 [5]: 28.5 nM
- CC50 [6]: 6400 nM

SMILES: C=C(C)[C@@H]1CC[C@]2(NCCN3CCS(=O)(=O)CC3)CC[C@]3(C)[C@H](CC[C@@H]4[C@@]5(C)CC=C(C6=CCC(COCC)(C(=O)O)CC6)C(C)(C)[C@@H]5CC[C@]43C)[C@@H]12 (stereo not given in full)
- EC50 [1]: 3.2 nM
- EC50 [2, 8]: 21.8 nM
- EC50 [5]: 11.5 nM
- CC50 [6]: 5100 nM

SMILES: C=C(C)[C@@H]1CC[C@]2(NCCN3CCC(S(C)(=O)=O)CC3)CC[C@]3(C)[C@H](CC[C@@H]4[C@@]5(C)CC=C(C6=CCC(CF)(C(=O)O)CC6)C(C)(C)[C@@H]5CC[C@]43C)[C@@H]12 (stereo not given in full)
- EC50 [1]: 1.7 nM
- EC50 [2, 8]: 10.9 nM
- EC50 [5]: 6.6 nM
- CC50 [6]: 12400 nM
- AUC [7]: 14.7 µM·h

SMILES: C=C(C)[C@@H]1CC[C@]2(NCCN3CCC(S(C)(=O)=O)CC3)CC[C@]3(C)[C@H](CC[C@@H]4[C@@]5(C)CC=C(C6=CC[C@](CF)(C(=O)O)CC6)C(C)(C)[C@@H]5CC[C@]43C)[C@@H]12
- EC50 [1]: 2.3 nM
- EC50 [2, 8]: 14.7 nM
- EC50 [3]: 8.2 nM
- EC50 [5]: 6.5 nM
- CC50 [6]: 7100 nM
- AUC [7]: 24.1 µM·h

SMILES: C=C(C)[C@@H]1CC[C@]2(NCCN3CCS(=O)(=O)CC3)CC[C@]3(C)[C@H](CC[C@@H]4[C@@]5(C)CC=C(C6=CC7(C6)CC(C(=O)O)(C(=O)O)C7)C(C)(C)[C@@H]5CC[C@]43C)[C@@H]12
- EC50 [1]: 1.3 nM
- CC50 [6]: > 30000 nM

SMILES: C=C(C)[C@@H]1CC[C@]2(NCCN3CCS(=O)(=O)CC3)CC[C@]3(C)[C@H](CC[C@@H]4[C@@]5(C)CC=C(C6=CCC(CC7CC7)(C(=O)O)CC6)C(C)(C)[C@@H]5CC[C@]43C)[C@@H]12 (stereo not given in full)
- EC50 [1]: 4.5 nM
- EC50 [2, 8]: 48.5 nM
- EC50 [5]: 54.1 nM
- CC50 [6]: 16200 nM

SMILES: C=C(C)[C@@H]1CC[C@]2(NCCN3CCS(=O)(=O)CC3)CC[C@]3(C)[C@H](CC[C@@H]4[C@@]5(C)CC=C(C6=CCC(CC)(C(=O)O)CC6)C(C)(C)[C@@H]5CC[C@]43C)[C@@H]12 (stereo not given in full)
- EC50 [1]: 3.6 nM
- EC50 [2, 8]: 37.9 nM
- EC50 [5]: 9.7 nM
- CC50 [6]: 27500 nM

SMILES: C=C(C)[C@@H]1CC[C@]2(NCCN3CCS(=O)(=O)CC3)CC[C@]3(C)[C@H](CC[C@@H]4[C@@]5(C)CC=C(C6=CCC(CF)(C(=O)O)CC6)C(C)(C)[C@@H]5CC[C@]43C)[C@@H]12 (single isomer, unassigned) [FIPRAVIRIMAT]
- EC50 [1]: 2 nM
- EC50 ([2]; mt2): 6.6 nM
- EC50 [3]: 1.8 nM
- EC50 [5]: 9.4 nM
- CC50 [6]: 13300 nM
- AUC [7]: 6.98 µM·h

SMILES: C=C(C)[C@@H]1CC[C@]2(NCCN3CCC(S(C)(=O)=O)CC3)CC[C@]3(C)[C@H](CC[C@@H]4[C@@]5(C)CC=C(C6=CC[C@@](CF)(C(=O)O)CC6)C(C)(C)[C@@H]5CC[C@]43C)[C@@H]12
- EC50 [1]: 1.9 nM
- EC50 [2, 8]: 18.3 nM
- EC50 [3]: 5.8 nM
- EC50 [5]: 8 nM
- CC50 [6]: 13400 nM
- AUC [7]: 19.1 µM·h

SMILES: C=C(C)[C@@H]1CC[C@]2(NCCN3CCS(=O)(=O)CC3)CC[C@]3(C)[C@H](CC[C@@H]4[C@@]5(C)CC=C(C6=CCC(OC)(C(=O)O)CC6)C(C)(C)[C@@H]5CC[C@]43C)[C@@H]12 (stereo not given in full)
- EC50 [1]: 2.5 nM
- EC50 [2, 8]: 25 nM
- EC50 [5]: 21.8 nM
- CC50 [6]: 13100 nM
- AUC [7]: 8.24 µM·h

SMILES: C=C(C)[C@@H]1CC[C@]2(NCCN3CCC(S(C)(=O)=O)CC3)CC[C@]3(C)[C@H](CC[C@@H]4[C@@]5(C)CC=C(C6=CC[C@@H](C(=O)O)CC6)C(C)(C)[C@@H]5CC[C@]43C)[C@@H]12
- EC50 [2, 8]: 4.9 nM
- EC50 [5]: 18.8 nM
- CC50 [6]: 9100 nM
- AUC [7]: 9.18 µM·h

SMILES: C=C(C)[C@@H]1CC[C@]2(NCCN3CCS(=O)(=O)CC3)CC[C@]3(C)[C@H](CC[C@@H]4[C@@]5(C)CC=C(C6=CCC(CF)(C(=O)O)CC6)C(C)(C)[C@@H]5CC[C@]43C)[C@@H]12 (stereo not given in full)
- EC50 [1]: 1.3 nM
- EC50 [2, 8]: 9.5 nM
- EC50 [5]: 3.9 nM
- CC50 [6]: 6800 nM
- AUC [7]: 7.7 µM·h

SMILES: C=C(C)[C@@H]1CC[C@]2(NCCN3CCS(=O)(=O)CC3)CC[C@]3(C)[C@H](CC[C@@H]4[C@@]5(C)CC=C(C6=CCC(C(=O)O)CC6)C(C)(C)[C@@H]5CC[C@]43C)[C@@H]12 (stereo not given in full)
- CC50 [6]: 13900 nM
- AUC [7]: 12.9 µM·h

SMILES: C=C(C)[C@@H]1CC[C@]2(NCCN3CCS(=O)(=O)CC3)CC[C@]3(C)[C@H](CC[C@@H]4[C@@]5(C)CC=C(C6=CCC(OC(C)C)(C(=O)O)CC6)C(C)(C)[C@@H]5CC[C@]43C)[C@@H]12 (stereo not given in full)
- EC50 [1]: 5 nM
- EC50 [2, 8]: 48.5 nM
- EC50 [5]: 987 nM
- CC50 [6]: 9700 nM

SMILES: C=C(C)[C@@H]1CC[C@]2(NCCN3CCS(=O)(=O)CC3)CC[C@]3(C)[C@H](CC[C@@H]4[C@@]5(C)CC=C(C6=CCC(C(=O)O)(c7ccccc7)CC6)C(C)(C)[C@@H]5CC[C@]43C)[C@@H]12 (stereo not given in full)
- EC50 [1]: 7.7 nM
- EC50 [2, 8]: 15.1 nM
- EC50 [5]: 31.2 nM
- CC50 [6]: 13500 nM
